Data reported in patent US20240130998A1, “ANALGESIA FROM ORAL PROCAINE A FORGOTTEN VOLTAGE GATED SODIUM CHANNEL BLOCKER” (priority 2023, published 2024).
“And” between values parts separate entries of the source, which are not always exact repeats. Equal entries are not always repeated. Where two headings read alike, the source gives them in different places.

Columns and labels:
plasma esterase = plasma esterase (Homo sapiens, UniProt P06276); settings: cited from earlier work
[1] = cited from earlier work
[2] = system: central pore of sodium channels; settings: cited from earlier work
[3] = system: procaine induced convulsion; settings: diazepam 0.3 mg/kg intravenous; procaine 100-150 mg/kg intraperitoneally; animal model; cited from earlier work
[4] = system: patients with acute or chronic pain; settings: cited from earlier work
[5] = system: patients with chronic pain; settings: cited from earlier work
[6] = Ion trapping effects of charged and uncharged procaine (pH=pKa+log B/BH+)
Text: As the molecule transits from the blood to neural cytoplasm, procaine becomes more charged and less lipophilic within the cytoplasm of the neuron, and the concentration of the active charge species increases. The charged active species is essentially trapped in the cytoplasm, only being able to exit after hydrolysis to PABA and DEAE or through distribution.
The intraneural pH of human dorsal root ganglia is not known, but it is generally accepted that intraneural pH decreases with neural activity. The pH of cervical ganglia of a rodent is reported as 7.30-6.51, and the typical resting or “steady-state” pH within a hippocampal neuron is reported as ˜7.03-7.46,[30]

[7] = in vivo, iv; cited from earlier work
[8] = in vivo, po; cited from earlier work
[9] = Pharmacokinetics of intravenous procaine; assay type: in vivo; settings: 95 mg bolus IV, 70 kg human, calculated
Method: In a 70 kg human, with an average central compartment procaine blood volume of distribution of 0.57 L/kg procaine or 40.0. L, an initial blood level of 2.36 μg/ml is obtained with a 95 mg bolus IV procaine administration.[16]

[10] = system: dorsal root ganglia neurons; settings: neurons with an abundance of Nav 1.8 channels; cited from earlier work

Chain of plasma esterase (P06276 29-602): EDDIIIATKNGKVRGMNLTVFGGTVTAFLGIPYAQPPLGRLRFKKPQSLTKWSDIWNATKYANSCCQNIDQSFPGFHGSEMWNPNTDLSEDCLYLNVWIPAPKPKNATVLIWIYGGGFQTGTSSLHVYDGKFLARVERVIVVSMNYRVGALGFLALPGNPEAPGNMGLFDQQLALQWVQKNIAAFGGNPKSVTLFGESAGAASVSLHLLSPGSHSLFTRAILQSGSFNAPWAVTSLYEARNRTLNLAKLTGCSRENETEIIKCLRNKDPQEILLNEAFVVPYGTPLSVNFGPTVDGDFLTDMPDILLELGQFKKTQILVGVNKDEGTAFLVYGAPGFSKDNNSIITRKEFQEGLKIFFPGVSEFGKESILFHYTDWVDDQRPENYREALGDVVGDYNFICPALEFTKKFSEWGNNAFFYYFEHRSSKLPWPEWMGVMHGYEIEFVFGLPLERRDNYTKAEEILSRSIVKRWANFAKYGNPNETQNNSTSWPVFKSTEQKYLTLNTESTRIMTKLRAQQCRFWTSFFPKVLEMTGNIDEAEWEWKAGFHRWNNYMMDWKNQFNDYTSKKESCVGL

CCN(CC)CCOC(=O)c1ccc(N)cc1Cl [2-chloroprocaine]
Rate of hydrolysis by plasma esterase relative to procaine (plasma esterase): 4 ×

CCN(CC)CCO [DEAE, diethylaminoethanol]
pKa [1]: ~10.1

Cc1cccc(C)c1NC(=O)CN [GX, glycinexylidide]
Potency relative to the parent drug lidocaine [2]: nearly ineffective

CCNCC(=O)Nc1c(C)cccc1C [MEGX, monoethylglycinexylidide]
Potency relative to the parent drug lidocaine [2]: 80%

Nc1ccc(C(=O)O)cc1 [PABA, para-aminobenzoic acid]
pKa [1]: ~4.6

CN1C(=O)CN=C(c2ccccc2)c2cc(Cl)ccc21 [diazepam]
Effect on procaine induced convulsion [3]: aborted procaine induced convulsion

CCN(CC)CCOC(=O)c1ccc(N)cc1 [procaine]
Relief of pain and discomfort ([4]; Betcher, IV, 92 patients, various orthopedic conditions): adequate relief
Analgesia ([4]; Kahl, IV infusion 2000 mg over 24 hours, acute pancreatic pain): poor analgesia
Analgesia ([4]; Keats, IV, approximate dose 370 mg, 53 patients, acute post-operative pain): inadequate analgesia
Chronic pain relief (patients) ([4]; Shanbrom, 500 mg to 1000 mg IV, postherpetic neuralgia): 13/16
Relief of acute pain ([4]; Zeluff, IV 1000 mg, 3 patients, traumatic military injuries): dramatic relief
Efficacy (patients successfully treated) ([5]; Balfour 1951, oral 80 mg with Metamucil, chronic dysphagia): 8
Efficacy (patients with relief / patients treated) ([5]; Beinhauer 1954, oral 3000 mg/day, herpes zoster or burning tongue syndrome): 9/14
Efficacy (patients with analgesia / patients treated) ([5]; Klein 1953, oral 450 mg TID, chronic pain from arthritis): 38/50
Efficacy (patients with analgesia / patients treated) ([5]; Koch 1989, oral 200 mg BID, procaine double salt complex, chronic pain from rheumatoid arthritis): 29/30
Efficacy (patients with analgesia / patients treated) ([5]; Kupperman 1957, oral 1000 mg TID with meals, arthritis): no analgesia and 0/50
Efficacy (patients with chronic pain relief / patients treated) ([5]; Traut 1952, oral 3000 mg/day in divided doses after meals, arthritis): 5/32
[BH+]/[B] ([6]; Blood, pH 7.4): 32
[BH+]/[B] ([6]; CSF, pH 7.32): 38
[BH+]/[B] ([6]; Ganglia or intraneural, pH 7.30-6.51): 40-245
[BH+]/[B] ([6]; Interstitial, pH 7.4): 32
Predicted intraneural [BH+] relative to blood [BH+] ([6]; ion trapping and diminished CSF pseudocholinesterase activity, without Michaelis-Menten kinetics): ≤ 750 times
Factor of increase of [BH+]/[B] from blood to intraneural cytoplasm ([6]; ion trapping only): at least 7.5
Blood level considered therapeutic [7]: 10000 ng/mL
Peak plasma procaine levels [8]: 0.2-3.1 mg percent
Initial blood level [9]: 2.36 µg/mL
Minimum concentration for block of dorsal root ganglia neurons [10]: 10 µM
